Measured values published in ChEMBL document CHEMBL3988442, “University of Dundee, Small-Polar-MMV Screening Library” (2021).
Several values for one entry are separate records, joined by “and”; a condition that tells them apart may be missing. Equal entries are not always repeated.

What was measured:
[1] = target: T1, Coenzyme A biosynthesis bifunctional protein CoaBC (Mycobacterium tuberculosis (strain ATCC 25618 / H37Rv), UniProt P9WNZ1); assay: Biomol Green assay for MtCoaBC inhibitor, OD650 read; format: functional
T1 sequence (P9WNZ1 whole entry): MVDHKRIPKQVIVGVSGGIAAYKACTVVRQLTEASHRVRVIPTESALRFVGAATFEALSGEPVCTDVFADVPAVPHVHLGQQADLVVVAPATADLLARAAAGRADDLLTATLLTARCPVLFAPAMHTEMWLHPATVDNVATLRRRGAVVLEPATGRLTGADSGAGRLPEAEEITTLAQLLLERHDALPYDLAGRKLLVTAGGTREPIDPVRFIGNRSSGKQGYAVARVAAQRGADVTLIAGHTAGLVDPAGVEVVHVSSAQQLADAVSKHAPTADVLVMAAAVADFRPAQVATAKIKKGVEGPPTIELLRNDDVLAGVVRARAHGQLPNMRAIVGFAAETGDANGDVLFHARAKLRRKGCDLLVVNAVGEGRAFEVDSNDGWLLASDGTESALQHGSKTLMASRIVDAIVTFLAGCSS

[2] = microbe, parasite or virus in culture; details: Mycobacterium tuberculosis, 96 h, read-out: pIC50 (converted)
[3] = microbe, parasite or virus in culture; details: Mycobacterium tuberculosis, 72 h, read-out: pIC50 (converted)
Histidine--tRNA ligase = target: T2, Histidine--tRNA ligase (Leishmania infantum, UniProt A4I591); assay: Leishmania infantum Histidine tRNA synthetase (LdHisRS); format: functional
T2 sequence (A4I591 whole entry): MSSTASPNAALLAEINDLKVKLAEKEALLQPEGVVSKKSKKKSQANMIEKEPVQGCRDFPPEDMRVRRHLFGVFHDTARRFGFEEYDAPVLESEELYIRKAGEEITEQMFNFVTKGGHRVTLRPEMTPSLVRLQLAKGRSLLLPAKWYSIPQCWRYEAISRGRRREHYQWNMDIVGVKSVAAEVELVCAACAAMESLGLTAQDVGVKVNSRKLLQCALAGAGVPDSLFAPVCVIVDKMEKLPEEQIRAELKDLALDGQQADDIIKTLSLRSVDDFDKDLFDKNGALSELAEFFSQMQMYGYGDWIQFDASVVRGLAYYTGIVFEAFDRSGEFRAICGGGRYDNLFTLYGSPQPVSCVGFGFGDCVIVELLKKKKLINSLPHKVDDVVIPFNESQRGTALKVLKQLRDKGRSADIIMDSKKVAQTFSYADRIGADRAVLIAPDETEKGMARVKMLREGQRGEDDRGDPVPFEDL

Lysine--tRNA ligase = Lysine--tRNA ligase (Plasmodium falciparum (isolate 3D7), UniProt Q8IDJ8); assay: Pf-KRS-1 (Lysyl-RNA Synthetase-1, KRS-1, cytosolic KRS) from Plasmodium falciparum. Inhibitor assay, 384 well plate, luminescence read.; format: functional
Chain of Lysine--tRNA ligase (Q8IDJ8 whole entry): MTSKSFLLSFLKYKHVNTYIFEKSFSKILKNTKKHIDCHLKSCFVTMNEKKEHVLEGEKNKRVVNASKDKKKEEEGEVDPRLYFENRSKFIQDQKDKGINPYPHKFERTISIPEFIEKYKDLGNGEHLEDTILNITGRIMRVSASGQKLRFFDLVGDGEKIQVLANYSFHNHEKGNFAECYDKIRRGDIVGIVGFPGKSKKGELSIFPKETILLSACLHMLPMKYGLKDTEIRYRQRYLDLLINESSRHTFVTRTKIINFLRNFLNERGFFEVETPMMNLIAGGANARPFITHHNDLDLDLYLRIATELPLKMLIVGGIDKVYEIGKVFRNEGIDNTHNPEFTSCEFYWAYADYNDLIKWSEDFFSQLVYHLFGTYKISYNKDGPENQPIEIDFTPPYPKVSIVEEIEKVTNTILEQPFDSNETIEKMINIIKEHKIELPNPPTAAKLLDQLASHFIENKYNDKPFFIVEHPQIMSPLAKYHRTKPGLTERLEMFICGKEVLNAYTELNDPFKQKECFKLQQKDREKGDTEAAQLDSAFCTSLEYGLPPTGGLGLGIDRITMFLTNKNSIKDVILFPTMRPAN

[4] = In vitro enzyme assay to detect hydrolysis of chlorophenol red-beta-D-[…] directly proportional to the number of Toxoplasma stably expressing beta-galactosidase; format: functional, organism-based, Toxoplasma gondii; details: for IC50: Toxoplasma gondii
Plasmodium falciparum = assay: Calibr Malaria Delayed Death Assay SOP; format: functional, organism-based; details: for IC50: Plasmodium falciparum
Leishmania donovani = assay: Leishmania intramacrophage assay; format: functional, organism-based; details: Leishmania donovani
Tryptophan--tRNA ligase = Tryptophan--tRNA ligase (Mycobacterium tuberculosis (strain ATCC 25618 / H37Rv), UniProt P9WFT3); assay: Biochemical assay for Mt-TrpRS; format: functional
Chain of Tryptophan--tRNA ligase (P9WFT3 whole entry): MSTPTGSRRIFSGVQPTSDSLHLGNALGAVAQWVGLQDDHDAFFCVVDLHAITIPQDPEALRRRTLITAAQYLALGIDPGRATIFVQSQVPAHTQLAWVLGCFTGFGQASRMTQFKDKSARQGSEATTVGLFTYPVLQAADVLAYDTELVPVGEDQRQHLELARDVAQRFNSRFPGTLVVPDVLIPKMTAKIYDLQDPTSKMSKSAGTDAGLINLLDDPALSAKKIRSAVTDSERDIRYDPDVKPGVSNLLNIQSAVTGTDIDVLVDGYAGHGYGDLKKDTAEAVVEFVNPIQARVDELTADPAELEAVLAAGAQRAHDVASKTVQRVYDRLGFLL

ClpP1P2 = ClpP1P2 (Mycobacterium tuberculosis (strain ATCC 25618 / H37Rv), UniProt P9WPC3+P9WPC5); assay: in vitro assay to detect presence of AMC directly proportional to the activity of ClpP1P2. GHDDI collaboration.; format: functional
Chain of ClpP1P2 (P9WPC5 whole entry): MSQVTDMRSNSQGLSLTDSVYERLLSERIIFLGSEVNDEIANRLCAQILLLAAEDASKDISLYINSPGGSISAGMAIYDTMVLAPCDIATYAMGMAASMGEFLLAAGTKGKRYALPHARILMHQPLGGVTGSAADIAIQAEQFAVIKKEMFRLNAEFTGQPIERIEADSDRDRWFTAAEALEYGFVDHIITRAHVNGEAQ
Chain of ClpP1P2 (P9WPC3 whole entry): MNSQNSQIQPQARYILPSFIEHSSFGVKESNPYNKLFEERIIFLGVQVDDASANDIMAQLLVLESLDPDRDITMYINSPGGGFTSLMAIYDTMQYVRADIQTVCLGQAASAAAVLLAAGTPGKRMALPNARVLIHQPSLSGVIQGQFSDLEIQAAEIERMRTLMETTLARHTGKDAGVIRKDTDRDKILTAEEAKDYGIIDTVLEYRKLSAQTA

For `CC(C)(C)CN1CCN2C(=O)N(C3CCCCC3)C[C@H]2C1`, which IC50 [1] is on record?
Its IC50 is over 30.2 µM.

What about the IC50 [2] of the same compound?
Its IC50 is over 50.1 µM.

What about the IC50 [3] of the same compound?
The IC50 was over 50.1 µM.

For `CS(=O)(=O)N1CCC2(CC1)CN(CCn1cccn1)C(=O)CO2`, which IC50 [1] is on record?
The IC50 was over 50.1 µM.

What about the IC50 (Histidine--tRNA ligase) of the same compound?
Its IC50 is over 100 µM.

For `Cc1nc(NC(C)C)nc2c1CN(Cc1nccn1C)CC2`, which IC50 (Lysine--tRNA ligase) is on record?
Its IC50 is over 50.1 µM.

With `O=c1[nH]c2c(c(=O)n1C1CCCCC1)CCC2Nc1ccccn1` (stereo unspecified) as the compound, how does the IC50 (Lysine--tRNA ligase) read?
Its IC50 is over 50.1 µM.

With `CCn1c(NCc2ccccn2)nc2c(C)nn(C)c2c1=O` as the compound, how does the IC50 [1] read?
Its IC50 is over 30.2 µM.

And the pIC50 [4]?
Its pIC50 is < 4.3 and 4.672.

For `Cc1nn(C)c(C)c1CN(C)C(=O)c1cc(NC(=O)C2CC2)n(C)n1`, which IC50 [1] is on record?
Its IC50 is over 30.2 µM.

And the IC50 [4]?
The IC50 was over 50.1 µM.

With `CCN(CC)CCNS(=O)(=O)c1cccc(CSC)c1` as the compound, how does the IC50 [1] read?
Its IC50 is over 30.2 µM.

What about the pIC50 (Plasmodium falciparum) of the same compound?
The pIC50 was 6.161.

And the IC50 (Plasmodium falciparum)?
The IC50 was 0.551 µM.

Which IC50 [1] does the source give for `CCn1cc(-c2cc(C(F)(F)F)nc(NC3CCCC3)n2)c(C)n1` here?
The IC50 was over 30.2 µM.

And the IC50 (Leishmania donovani)?
The IC50 was over 50.1 µM.

What about the pIC50 [4] of the same compound?
The pIC50 was 4.783.

And the IC50 [4]?
Its IC50 is 17.8 µM.

With `Cc1ccc(C(=O)Nc2c(C(=O)N(C)C)nn(C)c2C)cc1C` as the compound, how does the IC50 [1] read?
Its IC50 is over 30.2 µM.

And the IC50 [4]?
The IC50 was over 50.1 µM.

For `Cc1cc(N2CCC(O)CC2)nc(C2CCCN2C)n1` (stereo unspecified), which IC50 [1] is on record?
The IC50 was over 30.2 µM.

What about the IC50 (Histidine--tRNA ligase) of the same compound?
The IC50 was 31 µM and 38.1 µM.

For `Cc1cc(CCC2CN(CC3(O)CCCCC3)CCO2)ncn1` (stereo unspecified), which IC50 [1] is on record?
Its IC50 is over 30.2 µM.

And the IC50 (Tryptophan--tRNA ligase)?
The IC50 was over 195 µM.

With `Cc1c[nH]nc1C1CCN(C(=O)C2CCOCC2)C1` (stereo unspecified) as the compound, how does the IC50 [1] read?
Its IC50 is over 30.2 µM.

What about the IC50 (Tryptophan--tRNA ligase) of the same compound?
The IC50 was over 195 µM.

What does the source list for `O=S(=O)(CCCn1cncn1)Cc1ccc(F)cc1Cl`?
IC50 [1]: 4.13 µM and 4.68 µM; IC50 (Histidine--tRNA ligase): 10.5 µM and 17.6 µM

What does the source list for `COc1ccc(-n2cc(CNC(=O)c3ccc[nH]3)nn2)cc1`?
IC50 [1]: > 30.2 µM; IC50 (Histidine--tRNA ligase): 33.4 µM and 45.8 µM

With `COc1ccc(-c2nc(CCNc3nnc(C)c(C)c3C#N)co2)cc1` as the compound, how does the IC50 [1] read?
The IC50 was over 30.2 µM.

What about the IC50 (Histidine--tRNA ligase) of the same compound?
Its IC50 is 58.1 µM and 60.7 µM.

For `COc1c(Cl)cc(Cl)cc1CN1CCC(C(N)=O)C1` (stereo unspecified), which IC50 [1] is on record?
The IC50 was over 30.2 µM.

And the IC50 [2]?
The IC50 was over 50.1 µM.

And the IC50 [3]?
The IC50 was over 50.1 µM.

For `Cn1cc(CNC2CCCOc3c2ccc2ccccc32)cn1` (stereo unspecified), which IC50 [1] is on record?
Its IC50 is over 30.2 µM.

What about the pIC50 (Plasmodium falciparum) of the same compound?
Its pIC50 is 6.02.

What about the IC50 (Plasmodium falciparum) of the same compound?
Its IC50 is 0.871 µM.

Which IC50 [1] does the source give for `Cc1nc(-c2ccc(CC(=O)N3CCN(C(=O)C(C)C)CC3)cc2)cs1` here?
Its IC50 is over 30.2 µM.

And the IC50 (Histidine--tRNA ligase)?
Its IC50 is 24.8 µM and 12.4 µM.

What about the IC50 (ClpP1P2) of the same compound?
The IC50 was 8.96 µM.

Which IC50 [1] does the source give for `Cc1ccc(NS(=O)(=O)c2cnn(-c3ccccc3)c2)c(C(=O)O)c1` here?
Its IC50 is 22.5 µM and 20.5 µM.

And the IC50 (Histidine--tRNA ligase)?
Its IC50 is 38.9 µM and 18.2 µM.

For `COc1cccc(CNc2cc(C)nc(-c3ccncc3)n2)c1OC`, which IC50 [1] is on record?
The IC50 was over 30.2 µM.

And the IC50 (Histidine--tRNA ligase)?
The IC50 was 91.8 µM and > 100 µM.

What about the pIC50 (Plasmodium falciparum) of the same compound?
The pIC50 was 6.336.

What about the IC50 (Plasmodium falciparum) of the same compound?
The IC50 was 0.465 µM.

For `N#Cc1ccsc1N1CCC(Sc2ccncc2)C1=O` (stereo unspecified), which IC50 [1] is on record?
The IC50 was over 30.2 µM.

And the IC50 (Histidine--tRNA ligase)?
Its IC50 is 17.7 µM and 33 µM.

Which results are given for `COc1ccsc1C(=O)Nc1cc(Br)c(=O)n(C)c1`?
IC50 [1]: > 30.2 µM; IC50 (Histidine--tRNA ligase): 19.7 µM and 23.3 µM

With `c1csc(C2(NCc3csc(C4CC4)n3)CCCC2)n1` as the compound, how does the IC50 [1] read?
Its IC50 is over 30.2 µM.

And the IC50 (Histidine--tRNA ligase)?
Its IC50 is 57.3 µM and 56.6 µM.

Which results are given for `O=C(NCc1cccnc1N1CCc2ccccc2C1)c1cc(=O)[nH][nH]1`?
IC50 [1]: > 30.2 µM; IC50 (Histidine--tRNA ligase): 44.8 µM and 45.1 µM

With `CCN(Cc1ccc2cccc(O)c2n1)CC1CCCO1` (stereo unspecified) as the compound, how does the IC50 [1] read?
Its IC50 is over 30.2 µM.

And the IC50 (Histidine--tRNA ligase)?
The IC50 was 18.6 µM and 12.3 µM.

With `COc1ccc(-n2c(CCC(=O)O)nc3ccccc32)cc1CO` as the compound, how does the IC50 [1] read?
The IC50 was over 50.1 µM.

And the IC50 (Histidine--tRNA ligase)?
The IC50 was 68.6 µM and 44 µM.

With `Cc1ccc(-c2cc(-c3nc(CN4CCN(C)CC4)no3)[nH]n2)s1` as the compound, how does the IC50 [1] read?
The IC50 was over 30.2 µM.

And the IC50 (ClpP1P2)?
Its IC50 is over 100 µM.

Which results are given for `CC(C)Cc1nc(CO)n(-c2ccc3c(c2)OCCO3)n1`?
IC50 [1]: > 30.2 µM; IC50 (ClpP1P2): > 100 µM

For `Cc1n[nH]c(C)c1-c1c(C#N)c(N)nc2c1CCc1[nH]ccc1-2`, which IC50 [1] is on record?
Its IC50 is over 30.2 µM.

What about the IC50 (Histidine--tRNA ligase) of the same compound?
The IC50 was 16.8 µM and 18.1 µM.

And the IC50 (ClpP1P2)?
The IC50 was over 100 µM.

What does the source list for `NCC1Cc2cc(Oc3cc(F)c(CN4CCCC4)c(F)c3)ccc2O1` (stereo unspecified)?
IC50 [1]: > 30.2 µM; IC50 [4]: 20.4 µM; IC50 (Histidine--tRNA ligase): 30.2 µM and 36.9 µM; IC50 (ClpP1P2): 20.8 µM

With `Cc1ccc(NC2CCN(C(=O)c3cnn(C(C)(C)C)c3)CC2)nn1` as the compound, how does the IC50 [1] read?
The IC50 was over 50.1 µM.

With `COc1cc(CNC2CCc3nc(C)nn3C2)cc2c1OCO2` (stereo unspecified) as the compound, how does the IC50 [1] read?
The IC50 was over 30.2 µM.

Which IC50 [1] does the source give for `CCc1ncc2c(n1)CN(Cc1nc(-c3cccs3)no1)CC2` here?
The IC50 was over 30.2 µM.

With `Cc1nn(-c2ccccc2)cc1C(=O)N1CCCC1c1cnn(C)c1` (stereo unspecified) as the compound, how does the IC50 [1] read?
The IC50 was over 30.2 µM.

Which IC50 [1] does the source give for `COc1ccc(Cl)cc1C(=O)NCCNc1cnccn1` here?
Its IC50 is over 30.2 µM.

Which IC50 [1] does the source give for `Cn1cnc(S(=O)(=O)NCCN2CCCCCC2)c1Cl` here?
The IC50 was over 30.2 µM.

Which IC50 [1] does the source give for `COc1cccc2cc(CNCc3ccc(N4CCCC4)nc3)oc12` here?
Its IC50 is over 30.2 µM.

For `Cc1nnc(CN(Cc2ccc3c(c2)OCO3)C2CCCCC2)o1`, which IC50 [1] is on record?
Its IC50 is over 30.2 µM.

For `CCNC(=O)NC(=O)CNC(C)(C)c1ccc2c(c1)OCCO2`, which IC50 [1] is on record?
Its IC50 is over 30.2 µM.

For `CCc1noc(C(C)N2CCN(CCN3CCCC3=O)CC2)n1` (stereo unspecified), which IC50 [1] is on record?
The IC50 was over 30.2 µM.

For `CN(Cc1nnc(C2CC2)n1C)C1CCN(Cc2ccncc2)C1` (stereo unspecified), which IC50 [1] is on record?
The IC50 was over 30.2 µM.
